Values quoted from earlier work, collected in PubChem BioAssay AID1259409 (Chemical Carcinogenesis Research Information System (CCRIS), 2018).

Tested on: rodent chemically induced tumor inhibition, incidence and multiplicity
Experiment: CCRIS tumor inhibitor studies

CCO
tumour outcome (control, treated, inhibition, significance) (Carcinogen: ETHYL CARBAMATE, 51-79-6, Dose [Inhibitor]: 0, 20% SIMULTANEOUSLY WITH CARCINOGEN 1/D FOR WK (STUDY DURATION: 16 WK), Route [Inhibitor]: GAVAGE, Species: MOUSE, Strain/Sex: NMRI/FEMALE, Target Tissue: Type of Lesion: LUNG: ADENOMA, Dose [Carcinogen]: 180 MG/KG IN 20% ETHANOL 1/D FOR 8 WK (CONTROL GROUP ADMINISTERED CARCINOGEN IN WATER), Promoter: NONE USED): 100%, 100%, 0%, not significant | tumour outcome (control, treated, inhibition, significance) (Carcinogen: ETHYL CARBAMATE, 57-79-6, Dose [Inhibitor]: 0, 12% ADMINISTERED WITH CARCINOGEN IN DRINKING WATER FOR 41 WK (STUDY DURATION: 41 WK), Route [Inhibitor]: ORAL, Species: MOUSE, Strain/Sex: C3H/MALE, Target Tissue: Type of Lesion: LIVER: HEMANGIOENDOTHELIOMA, Dose [Carcinogen]: 10 MG/KG IN DRINKING WATER FOR 41 WK, Promoter: NONE USED): 5%, 5%, 0%, not significant | tumour outcome (control, treated, inhibition, significance) (Carcinogen: N-METHYL-N'-NITRO-N-NITROSOGUANIDINE, 70-25-7, Dose [Inhibitor]: 0, 10% IN DRINKING WATER FOR 51 WK BEGINNING 1 WK POST CARCINOGEN DOSE, 5% NACL INCLUDED IN THE DIET OF TREATED RATS (ST, Route [Inhibitor]: ORAL, Species: RAT, Strain/Sex: F344/MALE, Target Tissue: Type of Lesion: FORESTOMACH: CARCINOMA IN SITU, Dose [Carcinogen]: 150 MG/KG BW ONCE, Promoter: CATECHOL, 120-89-9): 3/15 (20%), 5/14 (36%), -80%, not significant | tumour outcome (control, treated, inhibition, significance) (Carcinogen: N-METHYL-N'-NITRO-N-NITROSOGUANIDINE, 70-25-7, Dose [Inhibitor]: 0, 10% IN DRINKING WATER FOR 51 WK BEGINNING 1 WK POST CARCINOGEN DOSE, 5% NACL INCLUDED IN THE DIET OF TREATED RATS (ST, Route [Inhibitor]: ORAL, Species: RAT, Strain/Sex: F344/MALE, Target Tissue: Type of Lesion: FORESTOMACH: PAPILLOMA, Dose [Carcinogen]: 150 MG/KG BW ONCE, Promoter: CATECHOL, 120-80-9): 15/15 (100%), 12/14 (86%), 14%, not significant | tumour outcome (control, treated, inhibition, significance) (Carcinogen: N-METHYL-N'-NITRO-N-NITROSOGUANIDINE, 70-25-7, Dose [Inhibitor]: 0, 10% IN DRINKING WATER FOR 51 WK BEGINNING 1 WK POST CARCINOGEN DOSE, 5% NACL INCLUDED IN THE DIET OF TREATED RATS (ST, Route [Inhibitor]: ORAL, Species: RAT, Strain/Sex: F344/MALE, Target Tissue: Type of Lesion: FORESTOMACH: SQUAMOUS CELL CARCINOMA, Dose [Carcinogen]: 150 MG/KG BW ONCE, Promoter: CATECHOL, 120-80-9): 15/15 (100%), 8/14 (57%), 43%, p<0.01 | tumour outcome (control, treated, inhibition, significance) (Carcinogen: N-METHYL-N'-NITRO-N-NITROSOGUANIDINE, 70-25-7, Dose [Inhibitor]: 0, 10% IN DRINKING WATER FOR 51 WK BEGINNING 1 WK POST CARCINOGEN DOSE, 5% NACL INCLUDED IN THE DIET OF TREATED RATS (ST, Route [Inhibitor]: ORAL, Species: RAT, Strain/Sex: F344/MALE, Target Tissue: Type of Lesion: GLANDULAR STOMACH: ADENOCARCINOMA, Dose [Carcinogen]: 150 MG/KG BW ONCE, Promoter: CATECHOL, 120-80-9): 11/15 (73%), 4/14 (29%), 60%, p<0.02 | tumour outcome (control, treated, inhibition, significance) (Carcinogen: N-METHYL-N'-NITRO-N-NITROSOGUANIDINE, 70-25-7, Dose [Inhibitor]: 0, 10% IN DRINKING WATER FOR 51 WK BEGINNING 1 WK POST CARCINOGEN DOSE, 5% NACL INCLUDED IN THE DIET OF TREATED RATS (ST, Route [Inhibitor]: ORAL, Species: RAT, Strain/Sex: F344/MALE, Target Tissue: Type of Lesion: GLANDULAR STOMACH: ADENOMA, Dose [Carcinogen]: 150 MG/KG BW ONCE, Promoter: CATECHOL, 120-80-9): 15/15 (100%), 13/14 (93%), 7%, not significant | tumour outcome (control, treated, inhibition, significance) (Carcinogen: N-NITROSOMETHYLBENZYLAMINE, 937-40-6, Dose [Inhibitor]: 1-2% IN LIQUID DIET ON DAY 1 AND INCREASING TO 7% BY DAY 8 OF AGENT TREATMENT AND CONTINUING FOR 12 WK (STUDY DURATION:, Route [Inhibitor]: ORAL, Species: RAT, Strain/Sex: SPRAGUE-DAWLEY/MALE, Target Tissue: Type of Lesion: ESOPHAGUS: PAPILLOMA, Dose [Carcinogen]: 2.5 MG/KG 3/WK FOR 3 WK BEGINNING THE LAST 3 WK OF AGENT TREATMENT, Promoter: NONE USED): 10/26 (38%), 3/13 (23%), 39%, p<0.01 | tumour outcome (control, treated, inhibition, significance) (Carcinogen: URETHANE, 51-79-6, Dose [Inhibitor]: 5% (VOL/VOL) IN DRINKING WATER CONCURRENTLY WITH CARCINOGEN FOR 12 WK (STUDY DURATION: 12 WK), Route [Inhibitor]: ORAL, Species: MOUSE, Strain/Sex: A/PH/FEMALE, Target Tissue: Type of Lesion: LUNG: ADENOMA, Dose [Carcinogen]: 200 PPM IN DRINKING WATER FOR 12 WK, Promoter: NONE USED): 100%, 100%, 0%, not calculated | tumour outcome (control, treated, inhibition, significance) (Carcinogen: URETHANE, 51-79-6, Dose [Inhibitor]: 5% (VOL/VOL) IN DRINKING WATER CONCURRENTLY WITH CARCINOGEN FOR 12 WK (STUDY DURATION: 12 WK), Route [Inhibitor]: ORAL, Species: MOUSE, Strain/Sex: A/PH/FEMALE, Target Tissue: Type of Lesion: LUNG: ADENOMA, Dose [Carcinogen]: 500 PPM IN DRINKING WATER FOR 12 WK, Promoter: NONE USED): 100%, 100%, 0%, not calculated | tumour outcome (control, treated, inhibition, significance) (Carcinogen: URETHANE, 51-79-6, Dose [Inhibitor]: 5% (VOL/VOL) IN DRINKING WATER CONCURRENTLY WITH CARCINOGEN FOR 12 WK (STUDY DURATION: 12 WK), Route [Inhibitor]: ORAL, Species: MOUSE, Strain/Sex: A/PH/FEMALE, Target Tissue: Type of Lesion: LUNG: ADENOMA, Dose [Carcinogen]: 1000 PPM IN DRINKING WATER FOR 12 WK, Promoter: NONE USED): 100%, 100%, 0%, not calculated | tumour outcome (control, treated, inhibition, significance) (Carcinogen: URETHANE, 51-79-6, Dose [Inhibitor]: 10% (VOL/VOL) IN DRINKING WATER CONCURRENTLY WITH CARCINOGEN FOR 12 WK (STUDY DURATION: 12 WK), Route [Inhibitor]: ORAL, Species: MOUSE, Strain/Sex: A/PH/FEMALE, Target Tissue: Type of Lesion: LUNG: ADENOMA, Dose [Carcinogen]: 200 PPM IN DRINKING WATER FOR 12 WK, Promoter: NONE USED): 100%, 80%, 20%, p<0.001 | tumour outcome (control, treated, inhibition, significance) (Carcinogen: URETHANE, 51-79-6, Dose [Inhibitor]: 10% (VOL/VOL) IN DRINKING WATER CONCURRENTLY WITH CARCINOGEN FOR 12 WK (STUDY DURATION: 12 WK), Route [Inhibitor]: ORAL, Species: MOUSE, Strain/Sex: A/PH/FEMALE, Target Tissue: Type of Lesion: LUNG: ADENOMA, Dose [Carcinogen]: 500 PPM IN DRINKING WATER FOR 12 WK, Promoter: NONE USED): 100%, 100%, 0%, not calculated | tumour outcome (control, treated, inhibition, significance) (Carcinogen: URETHANE, 51-79-6, Dose [Inhibitor]: 10% (VOL/VOL) IN DRINKING WATER CONCURRENTLY WITH CARCINOGEN FOR 12 WK (STUDY DURATION: 12 WK), Route [Inhibitor]: ORAL, Species: MOUSE, Strain/Sex: A/PH/FEMALE, Target Tissue: Type of Lesion: LUNG: ADENOMA, Dose [Carcinogen]: 1000 PPM IN DRINKING WATER FOR 12 WK, Promoter: NONE USED): 100%, 100%, 0%, not calculated | tumour outcome (control, treated, inhibition, significance) (Carcinogen: URETHANE, 51-79-6, Dose [Inhibitor]: 20% (VOL/VOL) IN DRINKING WATER CONCURRENTLY WITH CARCINOGEN FOR 12 WK (STUDY DURATION: 12 WK), Route [Inhibitor]: ORAL, Species: MOUSE, Strain/Sex: A/PH/FEMALE, Target Tissue: Type of Lesion: LUNG: ADENOMA, Dose [Carcinogen]: 200 PPM IN DRINKING WATER FOR 12 WK, Promoter: NONE USED): 100%, 100%, 0%, not calculated | tumour outcome (control, treated, inhibition, significance) (Carcinogen: URETHANE, 51-79-6, Dose [Inhibitor]: 20% (VOL/VOL) IN DRINKING WATER CONCURRENTLY WITH CARCINOGEN FOR 12 WK (STUDY DURATION: 12 WK), Route [Inhibitor]: ORAL, Species: MOUSE, Strain/Sex: A/PH/FEMALE, Target Tissue: Type of Lesion: LUNG: ADENOMA, Dose [Carcinogen]: 500 PPM IN DRINKING WATER FOR 12 WK, Promoter: NONE USED): 100%, 100%, 0%, not calculated | tumour outcome (control, treated, inhibition, significance) (Carcinogen: URETHANE, 51-79-6, Dose [Inhibitor]: 20% (VOL/VOL) IN DRINKING WATER CONCURRENTLY WITH CARCINOGEN FOR 12 WK (STUDY DURATION: 12 WK), Route [Inhibitor]: ORAL, Species: MOUSE, Strain/Sex: A/PH/FEMALE, Target Tissue: Type of Lesion: LUNG: ADENOMA, Dose [Carcinogen]: 1000 PPM IN DRINKING WATER FOR 12 WK, Promoter: NONE USED): 100%, 100%, 0%, not calculated
